The record followed here is patent US9487520B2, “Coelenterazine derivatives and methods of using same” (PROMEGA CORPORATION, priority 2010, dated 2016).

For one experiment, the system named is Jurkat cells. Kind of experiment: Measuring metabolically active cells using quinone coelenterazine derivatives. The format is cell-based. Particulars: two-fold serial dilutions of Jurkat cells; stocks 50 μM (40) and 100 μM (50); 30 minutes at 37° C.; Oplophorus luciferase detection reagent. The text has this: Viable cells maintain a metabolically active state that is inevitably lost when cells are damaged. Upon entering the living cells, the quinone coelenterazine is reduced to a coelenterazine derivative that is a substrate for a coelenterazine-utilizing luciferase, e.g., Oplophorus or Renilla luciferase. Conversion of the quinone coelenterazine is proportional to the number of metabolically active cells, and therefore can be measured quantitatively by monitoring light produced by luciferase reaction.
Two-fold serial dilutions of Jurkat cells were prepared in PBS, and 50 μl per well transferred to wells in 96-well plates. Compounds 40 and 50 were diluted in PBS to make 50 μM and 100 μM stocks, respectively. 10 μl of prepared compound stocks were added to the cells, and the cells were placed into 37° C., 5% CO2 incubator. Following 30 minutes incubation, the cells were removed from incubator, cooled at room temperature for 10 minutes, and 50 μl of Oplophorus luciferase detection reagent added directly to the wells. The samples were mixed, incubated at room temperature for 20 minutes, and luminescence measured.

Experiment [1] has as its target T1, caspase-3 (Homo sapiens, UniProt P42574).
T1 sequence (P42574 29-175 limits assumed): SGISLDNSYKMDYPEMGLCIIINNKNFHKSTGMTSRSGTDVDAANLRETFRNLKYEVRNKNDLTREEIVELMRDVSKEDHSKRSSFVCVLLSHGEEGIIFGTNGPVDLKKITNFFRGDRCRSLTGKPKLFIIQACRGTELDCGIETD
T1 sequence (P42574 176-277 limits assumed): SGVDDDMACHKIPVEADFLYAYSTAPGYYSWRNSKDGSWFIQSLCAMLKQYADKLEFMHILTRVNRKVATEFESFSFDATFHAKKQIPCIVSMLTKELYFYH
Put plainly: Caspase-3 detection with z-DEVD-coelenterazine-h and Renilla luciferase. The format is biochemical. Particulars: 25 μM substrate, 25 U/ml caspase-3, 3.25 ug/ml Renilla luciferase, measured over 110 minutes. The protocol: Compound 21 (50 μM) was combined with Renilla luciferase (6.5 μg/ml, Renilla-GST fusion) in 50 mM HEPES buffer pH 7.2, 2 mM DTT, and 0.5% CHAPS and incubated for 20 minutes to remove any free coelenterazine derivatives that may be substrates for Renilla luciferase. Purified caspase-3 enzyme (50 U/ml) or buffer control was added in a 1:1 volume ratio for final concentrations of 25 μM Z-DEVD-coelenterazine h derivative substrate, 25 U/ml caspase-3 and 3.25 ug/ml luciferase. Luminescence was measured over 110 minutes.

In experiment [2] the target is T1, caspase-3. Put plainly: Caspase 3 assay using Oplophorus luciferase variant 9B8 opt. The format is biochemical. Particulars: 23.5 μM substrate, OgLuc 9B8 opt lysate, with caspase-3. The protocol:
(§1) An Oplophorus luciferase (OgLuc) variant, 9B8 opt, was used in a bioluminescent assay using a pro-coelenterazine substrate comprising the DEVD caspase-3 cleavage sequence. Purified caspase-3 enzyme was mixed with an E. coli lysate sample expressing the variant 9B8 opt, which was purified using the HALOLINK™ Resin (Promega Corp.) according to manufacturer's instructions, and diluted 10-fold in a buffer containing 100 mM MES pH 6.0, 1 mM CDTA, 150 mM KCl, 35 mM thiourea, 2 mM DTT, 0.25% TERGITOL® NP-9 (v/v), 0.025% MAZU®, with or without 23.5 μM z-DEVD-coelenterazine-h in 100 mM HEPES pH 7.5. The caspase-3 enzyme was incubated with the lysate sample for 3 hrs at room temperature, and luminescence detected on a Turner MODULUS™ luminometer at various time points. A sample containing only bacterial lysate and a sample containing only caspase-3 were used as controls. Three replicates were used.

Experiment [3] deals with caspase-3. Described as above. The format is biochemical. Particulars: 23.5 μM substrate, OgLuc 9B8 opt lysate, no caspase-3. The procedure: as §1

With `CC1=C(C)C(=O)C(C(C)(C)CC(=O)N(C)CCN(C)C(=O)Oc2c(Cc3ccco3)nc3c(Cc4ccccc4)nc(-c4ccccc4)cn23)=C(C)C1=O` [Compound 40], the “relationship between luminescence and cell number” value in the experiment with Jurkat cells is “linear correlation between cell number and luminescence”.
In the case of `CC1=C(C)C(=O)C(C(C)(C)CC(=O)N(C)CCN(C)C(=O)Oc2c(Cc3ccccc3)nc3c(Cc4ccccc4)nc(-c4ccccc4)cn23)=C(C)C1=O` [Compound 50], the “relationship between luminescence and cell number” value with Jurkat cells was “linear correlation between cell number and luminescence”.
Regarding z-DEVD-coelenterazine-h [Compound 21], the “increase in luminescence relative to control samples that did not contain caspase” value at caspase-3 [1] is “one hundred-fold increase”. The “luminescence, + caspase” value is 25,411 RLU on caspase-3 [2] (5.0 min); 36,906 RLU on caspase-3 [2] (15.3 min); 41,854 RLU at caspase-3 [2] (29.9 min); 43,370 RLU on caspase-3 [2] (60.9 min); 42,448 RLU on caspase-3 [2] (190.3 min). Further, the “luminescence, − caspase” value is given as 26,023 RLU in the experiment on caspase-3 [3] (5.0 min); 7,707 RLU with caspase-3 [3] (15.3 min); 4,013 RLU with caspase-3 [3] (29.9 min); 2,305 RLU in the experiment on caspase-3 [3] (60.9 min); 1,155 RLU with caspase-3 [3] (190.3 min).
